Data: patent US8114991B2, “Amino-1,3,5-triazines N-substituted with chiral bicyclic radicals, process for their preparation, compositions thereof, and their use as herbicides and plant growth regulators” (Bayer Cropscience AG, priority 2003, dated 2012)

Columns and labels:
[1] = system: harmful plants such as Stellaria media, Lolium multiforum, Amaranthus retroflexus, Sinapis alba, Avena sativa and Setaria viridis; experiment: Pre-emergence effect on weeds (greenhouse pot test); format: in vivo; conditions: application rate of 1 kg or less of active ingredient per hectare; scored after 3 to 4 weeks by comparison with untreated controls
Method in brief: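 Seeds or rhizome pieces sown in sandy loam; test compounds (wettable powder or emulsion concentrate) applied pre-emergence to soil surface as aqueous suspension/emulsion at various dosages, 600 to 800 l water/ha. Greenhouse; plant/emergence damage scored visually after 3 to 4 weeks versus untreated controls.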

[2] = system: harmful plants such as Sinapis alba, Echinochloa crus-galli, Lolium multiflorum, Stellaria media, Cyperus iria, Amaranthus retroflexus, Setaria viridis, Avena …; experiment: Post-emergence effect on weeds (greenhouse pot test); format: in vivo; conditions: application rate of 2 kg or less of active ingredient per hectare; treated in the three-leaf stage; scored after approx. 3 to 4 weeks by comparison with untreated controls

Structure (SMILES) | pre-emergence control of harmful plants (plant or emergence damage scored visually) [1] | herbicidal post-emergence activity against harmful plants (scored visually) [2] | melting point [°C]
C[C@@H](F)c1nc(N)nc(N[C@@H]2CCOc3ccccc32)n1 [Compound 1.20, 2-Amino-4-[(4R)4-chromanylamino]-6-[(1R)-1-fluoroethyl]-1,3,5-triazine] | very good pre-emergence control | very good herbicidal post-emergence activity | 110 to 112
C[C@@H](F)c1nc(N)nc(N[C@H]2c3ccccc3C[C@@H]2C)n1 [Compound 2.1, 2-Amino-4-[(1R,2S)-2-methyl-1-indanylamino]-6-[(1R)-1-fluoroethyl]-1,3,5-triazine] | very good pre-emergence control | very good herbicidal post-emergence activity | 146 to 150
Cc1nc(N)nc(N[C@@H]2CCc3ccccc32)n1 [Compound 8.1, 2-Amino-4-[(1R)-1-indanylamino]-6-methyl-1,3,5-triazine] | very good pre-emergence control | very good herbicidal post-emergence activity | 94 to 96
Cc1nc(N)nc(N[C@@H]2CCOc3c(F)cccc32)n1 [Compound 8.238] | very good pre-emergence control | very good herbicidal post-emergence activity | –
CCc1nc(N)nc(N[C@@H]2CCOc3c(F)cccc32)n1 [Compound 8.239] | very good pre-emergence control | very good herbicidal post-emergence activity | –
CCCc1nc(N)nc(N[C@@H]2CCOc3c(F)cccc32)n1 [Compound 8.240] | very good pre-emergence control | very good herbicidal post-emergence activity | –
Cc1ccc2c(c1C)OCC[C@H]2Nc1nc(N)nc(C(C)(C)F)n1 [Compound 8.241] | very good pre-emergence control | very good herbicidal post-emergence activity | –
CCc1nc(N)nc(N[C@@H]2CCOc3c2ccc(C)c3C)n1 [Compound 8.242] | very good pre-emergence control | very good herbicidal post-emergence activity | –
COc1ccc2c(c1)[C@H](Nc1nc(N)nc(C(C)(C)F)n1)CC2 [Compound 8.243] | very good pre-emergence control | very good herbicidal post-emergence activity | –
CCc1nc(N)nc(N[C@@H]2CCc3ccc(OC)cc32)n1 [Compound 8.244] | very good pre-emergence control | very good herbicidal post-emergence activity | –
CCc1ccc2c(c1)[C@H](Nc1nc(N)nc(C(C)(C)F)n1)CC2 [Compound 8.245] | very good pre-emergence control | very good herbicidal post-emergence activity | –
CCc1ccc2c(c1)[C@H](Nc1nc(C)nc(N)n1)CC2 [Compound 8.246] | very good pre-emergence control | very good herbicidal post-emergence activity | –
CCc1ccc2c(c1)[C@H](Nc1nc(N)nc(C(C)C)n1)CC2 [Compound 8.247] | very good pre-emergence control | very good herbicidal post-emergence activity | –
CCc1ccc2c(c1)[C@H](Nc1nc(N)nc(CC)n1)CC2 [Compound 8.248] | very good pre-emergence control | very good herbicidal post-emergence activity | –
CCCc1nc(N)nc(N[C@@H]2CCc3ccc(CC)cc32)n1 [Compound 8.249] | very good pre-emergence control | very good herbicidal post-emergence activity | –
CCc1ccc2c(c1)[C@H](Nc1nc(N)nc(CCSC(F)(F)F)n1)CC2 [Compound 8.250] | very good pre-emergence control | very good herbicidal post-emergence activity | –
Cc1ccc2c(c1)[C@H](Nc1nc(N)nc(CCSC(F)(F)F)n1)CCC2 [Compound 8.251] | very good pre-emergence control | very good herbicidal post-emergence activity | –
Cc1cc(C)c2c(c1)[C@H](Nc1nc(N)nc(C(C)C)n1)CCC2 [Compound 8.252] | very good pre-emergence control | very good herbicidal post-emergence activity | –
COCc1nc(N)nc(N[C@@H]2CCCc3c(C)cc(C)cc32)n1 [Compound 8.253] | very good pre-emergence control | very good herbicidal post-emergence activity | –
Nc1nc(N[C@@H]2CCCc3ccccc32)nc(C(F)(F)F)n1 [Compound 8.254] | very good pre-emergence control | very good herbicidal post-emergence activity | –
N#CCc1nc(N)nc(N[C@@H]2CCCc3ccccc32)n1 [Compound 8.255] | very good pre-emergence control | very good herbicidal post-emergence activity | –
Nc1nc(N[C@@H]2CCCc3ccccc32)nc(C(F)F)n1 [Compound 8.256] | very good pre-emergence control | very good herbicidal post-emergence activity | –
CCCCc1nc(N)nc(N[C@@H]2CCCc3ccc(CC)cc32)n1 [Compound 8.257] | very good pre-emergence control | very good herbicidal post-emergence activity | –
CCC(F)c1nc(N)nc(N[C@H]2c3cc(C)ccc3C[C@@H]2C)n1 (stereo partly drawn) [Compound 9.37] | very good pre-emergence control | very good herbicidal post-emergence activity | –
CCCCc1nc(N)nc(N[C@H]2c3cc(C)ccc3C[C@@H]2C)n1 [Compound 9.66] | very good pre-emergence control | very good herbicidal post-emergence activity | –
Cc1ccc2c(c1)[C@H](Nc1nc(N)nc(C(C)F)n1)CC2 (stereo partly drawn) [Compound 10.2] | very good pre-emergence control | very good herbicidal post-emergence activity | –
CCC(F)c1nc(N)nc(N[C@@H]2CCc3ccc(C)cc32)n1 (stereo partly drawn) [Compound 10.37] | very good pre-emergence control | very good herbicidal post-emergence activity | –
CCC(F)c1nc(N)nc(N[C@@H]2CCCc3ccc(C)cc32)n1 (stereo partly drawn) [Compound 10.47] | very good pre-emergence control | very good herbicidal post-emergence activity | –
CCC(F)c1nc(N)nc(N[C@@H]2CCOc3ccc(C)cc32)n1 (stereo partly drawn) [Compound 10.57] | very good pre-emergence control | very good herbicidal post-emergence activity | –
CCCC(F)c1nc(N)nc(N[C@@H]2CCCc3ccc(C)cc32)n1 (stereo partly drawn) [Compound 10.66] | very good pre-emergence control | very good herbicidal post-emergence activity | –
